Results published in the NIST ThermoML archive (doi:10.1016/j.jct.2005.03.012).
± gives the expanded uncertainty stated by the source.

Experiment: excess molar enthalpy (molar enthalpy of mixing); xn = mol fraction of the nth substance listed
Conditions: Liquid

`CO` [methanol] + O showed an excess molar enthalpy (323.15 K, 2000 kPa, x1 = 0.2) of -0.153 ± 0.0055 kcal/mol, an excess molar enthalpy (323.15 K, 2000 kPa, x1 = 0.4) of -0.168 ± 0.00598 kcal/mol and an excess molar enthalpy (323.15 K, 2000 kPa, x1 = 0.6) of -0.142 ± 0.00502 kcal/mol. It also gave an excess molar enthalpy (323.15 K, 2000 kPa, x1 = 0.8) of -0.0978 ± 0.00382 kcal/mol, an excess molar enthalpy (323.15 K, 5000 kPa, x1 = 0.1) of -0.106 ± 0.00406 kcal/mol and an excess molar enthalpy (323.15 K, 5000 kPa, x1 = 0.2) of -0.154 ± 0.0055 kcal/mol. For the same compound, the excess molar enthalpy (323.15 K, 5000 kPa, x1 = 0.3) was -0.17 ± 0.00598 kcal/mol, the excess molar enthalpy (323.15 K, 5000 kPa, x1 = 0.4) was -0.169 ± 0.00598 kcal/mol and the excess molar enthalpy (323.15 K, 5000 kPa, x1 = 0.5) was -0.158 ± 0.00574 kcal/mol. For the same compound, the excess molar enthalpy (323.15 K, 5000 kPa, x1 = 0.6) was -0.142 ± 0.00526 kcal/mol, the excess molar enthalpy (323.15 K, 5000 kPa, x1 = 0.7) was -0.122 ± 0.00454 kcal/mol and the excess molar enthalpy (323.15 K, 5000 kPa, x1 = 0.8) was -0.0987 ± 0.00382 kcal/mol. For the same compound, the excess molar enthalpy (323.15 K, 5000 kPa, x1 = 0.9) was -0.055 ± 0.00239 kcal/mol, the excess molar enthalpy (323.15 K, 10000 kPa, x1 = 0.2) was -0.155 ± 0.0055 kcal/mol and the excess molar enthalpy (323.15 K, 10000 kPa, x1 = 0.4) was -0.172 ± 0.00598 kcal/mol. The excess molar enthalpy (323.15 K, 10000 kPa, x1 = 0.6) was -0.143 ± 0.00526 kcal/mol, the excess molar enthalpy (323.15 K, 10000 kPa, x1 = 0.8) was -0.0997 ± 0.00382 kcal/mol and the excess molar enthalpy (325.16 K, 5000 kPa, x1 = 0.1) was -0.103 ± 0.00382 kcal/mol. For the same compound, the excess molar enthalpy (325.16 K, 5000 kPa, x1 = 0.2) was -0.15 ± 0.00526 kcal/mol, the excess molar enthalpy (325.16 K, 5000 kPa, x1 = 0.3) was -0.165 ± 0.00574 kcal/mol and the excess molar enthalpy (325.16 K, 5000 kPa, x1 = 0.4) was -0.164 ± 0.00574 kcal/mol. It also gave an excess molar enthalpy (325.16 K, 5000 kPa, x1 = 0.5) of -0.153 ± 0.0055 kcal/mol, an excess molar enthalpy (325.16 K, 5000 kPa, x1 = 0.6) of -0.139 ± 0.00502 kcal/mol and an excess molar enthalpy (325.16 K, 5000 kPa, x1 = 0.7) of -0.119 ± 0.00454 kcal/mol. It also gave an excess molar enthalpy (325.16 K, 5000 kPa, x1 = 0.8) of -0.0958 ± 0.00359 kcal/mol, an excess molar enthalpy (325.16 K, 5000 kPa, x1 = 0.9) of -0.0548 ± 0.00239 kcal/mol and an excess molar enthalpy (325.16 K, 10000 kPa, x1 = 0.2) of -0.15 ± 0.0055 kcal/mol. The excess molar enthalpy (325.16 K, 10000 kPa, x1 = 0.4) was -0.166 ± 0.00598 kcal/mol, the excess molar enthalpy (325.16 K, 10000 kPa, x1 = 0.6) was -0.139 ± 0.00502 kcal/mol and the excess molar enthalpy (325.16 K, 10000 kPa, x1 = 0.8) was -0.0964 ± 0.00382 kcal/mol. For the same compound, the excess molar enthalpy (325.17 K, 2000 kPa, x1 = 0.2) was -0.149 ± 0.00526 kcal/mol, the excess molar enthalpy (325.17 K, 2000 kPa, x1 = 0.4) was -0.164 ± 0.00574 kcal/mol and the excess molar enthalpy (325.17 K, 2000 kPa, x1 = 0.6) was -0.138 ± 0.00502 kcal/mol. The excess molar enthalpy (325.17 K, 2000 kPa, x1 = 0.8) was -0.0951 ± 0.00359 kcal/mol, the excess molar enthalpy (325.45 K, 5000 kPa, x1 = 0.9) was -0.0537 ± 0.00239 kcal/mol and the excess molar enthalpy (327.47 K, 5000 kPa, x1 = 0.8) was -0.0944 ± 0.00359 kcal/mol. The excess molar enthalpy (327.48 K, 5000 kPa, x1 = 0.9) was -0.0536 ± 0.00239 kcal/mol, the excess molar enthalpy (327.62 K, 2000 kPa, x1 = 0.8) was -0.0935 ± 0.00359 kcal/mol and the excess molar enthalpy (327.85 K, 10000 kPa, x1 = 0.8) was -0.0948 ± 0.00359 kcal/mol. For the same compound, the excess molar enthalpy (328.61 K, 5000 kPa, x1 = 0.1) was -0.0988 ± 0.00382 kcal/mol, the excess molar enthalpy (328.71 K, 5000 kPa, x1 = 0.7) was -0.114 ± 0.0043 kcal/mol and the excess molar enthalpy (329.03 K, 2000 kPa, x1 = 0.8) was -0.0907 ± 0.00359 kcal/mol. The excess molar enthalpy (329.7 K, 10000 kPa, x1 = 0.6) was -0.132 ± 0.00478 kcal/mol, the excess molar enthalpy (329.76 K, 5000 kPa, x1 = 0.6) was -0.131 ± 0.00478 kcal/mol and the excess molar enthalpy (329.82 K, 2000 kPa, x1 = 0.6) was -0.131 ± 0.00478 kcal/mol. For the same compound, the excess molar enthalpy (329.82 K, 10000 kPa, x1 = 0.8) was -0.0921 ± 0.00359 kcal/mol, the excess molar enthalpy (330.07 K, 5000 kPa, x1 = 0.8) was -0.0915 ± 0.00359 kcal/mol and the excess molar enthalpy (330.39 K, 5000 kPa, x1 = 0.1) was -0.0956 ± 0.00359 kcal/mol. It also gave an excess molar enthalpy (330.5 K, 5000 kPa, x1 = 0.5) of -0.144 ± 0.00526 kcal/mol, an excess molar enthalpy (330.64 K, 2000 kPa, x1 = 0.2) of -0.139 ± 0.00502 kcal/mol and an excess molar enthalpy (330.67 K, 10000 kPa, x1 = 0.2) of -0.14 ± 0.00502 kcal/mol. The excess molar enthalpy (330.69 K, 5000 kPa, x1 = 0.2) was -0.14 ± 0.00502 kcal/mol, the excess molar enthalpy (330.7 K, 5000 kPa, x1 = 0.7) was -0.112 ± 0.0043 kcal/mol and the excess molar enthalpy (331.07 K, 2000 kPa, x1 = 0.4) was -0.151 ± 0.0055 kcal/mol. The excess molar enthalpy (331.07 K, 5000 kPa, x1 = 0.4) was -0.153 ± 0.0055 kcal/mol, the excess molar enthalpy (331.13 K, 10000 kPa, x1 = 0.4) was -0.153 ± 0.0055 kcal/mol and the excess molar enthalpy (331.23 K, 5000 kPa, x1 = 0.3) was -0.152 ± 0.0055 kcal/mol. For the same compound, the excess molar enthalpy (331.57 K, 10000 kPa, x1 = 0.6) was -0.128 ± 0.00478 kcal/mol, the excess molar enthalpy (331.61 K, 5000 kPa, x1 = 0.6) was -0.128 ± 0.00478 kcal/mol and the excess molar enthalpy (331.66 K, 2000 kPa, x1 = 0.6) was -0.127 ± 0.00478 kcal/mol. The excess molar enthalpy (332.3 K, 5000 kPa, x1 = 0.5) was -0.14 ± 0.00502 kcal/mol, the excess molar enthalpy (332.4 K, 10000 kPa, x1 = 0.2) was -0.135 ± 0.00502 kcal/mol and the excess molar enthalpy (332.42 K, 2000 kPa, x1 = 0.2) was -0.133 ± 0.00478 kcal/mol. For the same compound, the excess molar enthalpy (332.5 K, 5000 kPa, x1 = 0.2) was -0.136 ± 0.00502 kcal/mol, the excess molar enthalpy (332.88 K, 2000 kPa, x1 = 0.4) was -0.148 ± 0.00526 kcal/mol and the excess molar enthalpy (332.9 K, 5000 kPa, x1 = 0.4) was -0.148 ± 0.00526 kcal/mol. For the same compound, the excess molar enthalpy (332.91 K, 10000 kPa, x1 = 0.4) was -0.149 ± 0.00526 kcal/mol, the excess molar enthalpy (333.05 K, 5000 kPa, x1 = 0.3) was -0.148 ± 0.00526 kcal/mol and the excess molar enthalpy (348.15 K, 5000 kPa, x1 = 0.1) was -0.0704 ± 0.00287 kcal/mol. It also gave an excess molar enthalpy (348.15 K, 5000 kPa, x1 = 0.2) of -0.102 ± 0.00382 kcal/mol, an excess molar enthalpy (348.15 K, 5000 kPa, x1 = 0.3) of -0.112 ± 0.0043 kcal/mol and an excess molar enthalpy (348.15 K, 5000 kPa, x1 = 0.4) of -0.111 ± 0.0043 kcal/mol. It also gave an excess molar enthalpy (348.15 K, 5000 kPa, x1 = 0.5) of -0.107 ± 0.00406 kcal/mol, an excess molar enthalpy (348.15 K, 5000 kPa, x1 = 0.6) of -0.0974 ± 0.00382 kcal/mol and an excess molar enthalpy (348.15 K, 5000 kPa, x1 = 0.7) of -0.0869 ± 0.00335 kcal/mol. The excess molar enthalpy (348.15 K, 5000 kPa, x1 = 0.8) was -0.0695 ± 0.00287 kcal/mol, the excess molar enthalpy (348.15 K, 5000 kPa, x1 = 0.9) was -0.0424 ± 0.00208 kcal/mol and the excess molar enthalpy (349.68 K, 5000 kPa, x1 = 0.9) was -0.0412 ± 0.00201 kcal/mol. The excess molar enthalpy (350.05 K, 5000 kPa, x1 = 0.1) was -0.0674 ± 0.00287 kcal/mol, the excess molar enthalpy (350.05 K, 5000 kPa, x1 = 0.2) was -0.0978 ± 0.00382 kcal/mol and the excess molar enthalpy (350.05 K, 5000 kPa, x1 = 0.3) was -0.106 ± 0.00406 kcal/mol. For the same compound, the excess molar enthalpy (350.05 K, 5000 kPa, x1 = 0.4) was -0.106 ± 0.00406 kcal/mol, the excess molar enthalpy (350.05 K, 5000 kPa, x1 = 0.5) was -0.102 ± 0.00382 kcal/mol and the excess molar enthalpy (350.05 K, 5000 kPa, x1 = 0.6) was -0.0936 ± 0.00359 kcal/mol. The excess molar enthalpy (350.05 K, 5000 kPa, x1 = 0.7) was -0.0835 ± 0.00335 kcal/mol, the excess molar enthalpy (350.05 K, 5000 kPa, x1 = 0.8) was -0.0667 ± 0.00287 kcal/mol and the excess molar enthalpy (350.05 K, 5000 kPa, x1 = 0.9) was -0.0408 ± 0.00201 kcal/mol. It also gave an excess molar enthalpy (351.04 K, 5000 kPa, x1 = 0.8) of -0.0626 ± 0.00263 kcal/mol, an excess molar enthalpy (351.25 K, 5000 kPa, x1 = 0.9) of -0.0398 ± 0.00198 kcal/mol and an excess molar enthalpy (351.64 K, 5000 kPa, x1 = 0.1) of -0.0659 ± 0.00287 kcal/mol. For the same compound, the excess molar enthalpy (351.93 K, 5000 kPa, x1 = 0.7) was -0.0796 ± 0.00311 kcal/mol, the excess molar enthalpy (352.43 K, 5000 kPa, x1 = 0.6) was -0.0885 ± 0.00359 kcal/mol and the excess molar enthalpy (352.79 K, 5000 kPa, x1 = 0.8) was -0.0634 ± 0.00263 kcal/mol. The excess molar enthalpy (352.88 K, 5000 kPa, x1 = 0.5) was -0.096 ± 0.00359 kcal/mol, the excess molar enthalpy (353.01 K, 5000 kPa, x1 = 0.2) was -0.0922 ± 0.00359 kcal/mol and the excess molar enthalpy (353.16 K, 5000 kPa, x1 = 0.4) was -0.0995 ± 0.00382 kcal/mol. It also gave an excess molar enthalpy (353.32 K, 5000 kPa, x1 = 0.3) of -0.1 ± 0.00382 kcal/mol, an excess molar enthalpy (353.54 K, 5000 kPa, x1 = 0.1) of -0.0624 ± 0.00263 kcal/mol and an excess molar enthalpy (353.78 K, 5000 kPa, x1 = 0.7) of -0.0773 ± 0.00311 kcal/mol. The excess molar enthalpy (354.25 K, 5000 kPa, x1 = 0.6) was -0.0852 ± 0.00335 kcal/mol, the excess molar enthalpy (354.69 K, 5000 kPa, x1 = 0.5) was -0.0921 ± 0.00359 kcal/mol and the excess molar enthalpy (354.82 K, 5000 kPa, x1 = 0.2) was -0.0883 ± 0.00359 kcal/mol. The excess molar enthalpy (354.97 K, 5000 kPa, x1 = 0.4) was -0.095 ± 0.00359 kcal/mol.
